IC50 data for 8 compounds are collected here from BindingDB's records for doi:10.1016/j.bmcl.2009.06.075 (Pfizer, 2009).

SMILES strings stand for the structures.

The assay can be described thus: Antagonist activity at human P2Y12 receptor assessed as inhibition of ADP-induced platelet-rich plasma aggregation by turbidimetric method.
The IC50 is the midpoint of a concentration-inhibition curve. On to `CCCNc1cc(C(=O)N[C@@H](CCC(=O)O)C(=O)N2CCN(C(=O)OCC)CC2)nc(-c2ccccc2)c1` [(S)-5-(4-(ethoxycarbonyl)piperazin-1-yl)-5-oxo-4-(6-phenyl-4-(propylamino)picolinamido)pentanoic acid], for which the IC50 is 28 µM.

`CCCCCOC(=O)N1CCN(C(=O)[C@H](CCC(=O)O)NC(=O)c2cccc(-c3ccccc3)n2)CC1` [(S)-5-oxo-5-(4-(pentyloxycarbonyl)piperazin-1-yl)-4-(6-phenylpicolinamido)pentanoic acid]: the IC50 amounted to 15 µM.

On to `CCCCCOC(=O)N1CCN(C(=O)[C@H](CCC(=O)O)NC(=O)c2cc(OCCCC)cc(-c3ccccc3)n2)CC1` [(4S)4-{[(4-Butoxy-6-phenylpyridin-2-yl)carbonyl]amino}-5-oxo-5-{4-[(pentyloxy)carbonyl]piperazin-1-yl}pentanoic Acid], for which the IC50 came out at 28.4 µM.

With `CCOC(=O)N1CCN(C(=O)[C@H](CCC(=O)O)NC(=O)c2cc(OC)cc(-c3ccccc3)n2)CC1` [(S)-5-(4-(ethoxycarbonyl)piperazin-1-yl)-4-(4-methoxy-6-phenylpicolinamido)-5-oxopentanoic acid], the IC50 is 39 µM.

For the compound `CCOC(=O)N1CCN(C(=O)[C@H](CCC(=O)O)NC(=O)c2cc(NCc3ccccc3)cc(-c3ccccc3)n2)CC1` [(S)-4-(4-(benzylamino)-6-phenylpicolinamido)-5-(4-(ethoxycarbonyl)piperazin-1-yl)-5-oxopentanoic acid], the IC50 was 81 µM.

Turning to `CCOC(=O)N1CCN(C(=O)[C@H](CCC(=O)O)NC(=O)c2cc(OCCCN)cc(-c3ccccc3)n2)CC1` [(S)-4-(4-(3-aminopropoxy)-6-phenylpicolinamido)-5-(4-(ethoxycarbonyl)piperazin-1-yl)-5-oxopentanoic acid], the IC50 amounted to 3.8 µM.

Take `CCCCCOC(=O)N1CCN(C(=O)[C@H](CCC(=O)O)NC(=O)c2cc(N3CCC(COC)CC3)cc(-c3ccccc3)n2)CC1` [(4S)4-[({4-[4-(Methoxymethyl)piperidin-1-yl]-6-phenylpyridin-2-yl}carbonyl)amino]-5-oxo-5-{4-[(pentyloxy)carbonyl]piperazin-1-yl}pentanoic Acid]: the half-maximal inhibitory concentration (IC50) was determined as 3.9 µM.

In the case of `CCCCCCOC(=O)N1CCN(C(=O)[C@H](CCC(=O)O)NC(=O)c2cc(N3CCC(CN)CC3)cc(-c3ccccc3)n2)CC1` [(S)-4-(4-(4-(aminomethyl)piperidin-1-yl)-6-phenylpicolinamido)-5-(4-(hexyloxycarbonyl)piperazin-1-yl)-5-oxopentanoic acid], the IC50 came out at 1.6 µM.
